Measurements as given in article PMC12472322, “Structure–Activity Relationship Study of 3-Alkynyl-6-aryl-isothiazolo[4,3-b]pyridines as Dual Inhibitors of the Lipid Kinases PIKfyve and PIP4K2C” (Pharmaceuticals, 2025).

Columns and labels:
[1] = tested on: VEEV (TC-83); assay: microbe, parasite or virus in culture; format: cell-based; conditions: Venezuelan equine encephalitis virus, U-87 MG, 18 h, read-out: VEEV (TC-83) EC50
[2] = cell viability (AlamarBlue) in SARS-CoV-2-infected Vero E6/TMPRSS2 cells; format: cell-based; conditions: African green monkey, Vero E6/TMPRSS2 cells infected with SARS-CoV-2, half-maximal cytotoxic concentration, read-out: SARS-CoV2 CC50
[3] = tested on: U-87 MG cells; conditions: half-maximal cytotoxic concentration
[4] = molecular target: T1, PIKfyve (Homo sapiens, UniProt Q9Y2I7); assay: biochemical PIKfyve mobility shift assay (Nanosyn)
T1 construct: purchased Nanosyn, Santa Clara, CA, USA (contract assay service)

[5] = molecular target: T2, PIP4K2C (Homo sapiens, UniProt Q8TBX8); assay: PIP4K2C binding assay (DiscoverX/Kinome platform)
T2 sequence (Q8TBX8 1-421): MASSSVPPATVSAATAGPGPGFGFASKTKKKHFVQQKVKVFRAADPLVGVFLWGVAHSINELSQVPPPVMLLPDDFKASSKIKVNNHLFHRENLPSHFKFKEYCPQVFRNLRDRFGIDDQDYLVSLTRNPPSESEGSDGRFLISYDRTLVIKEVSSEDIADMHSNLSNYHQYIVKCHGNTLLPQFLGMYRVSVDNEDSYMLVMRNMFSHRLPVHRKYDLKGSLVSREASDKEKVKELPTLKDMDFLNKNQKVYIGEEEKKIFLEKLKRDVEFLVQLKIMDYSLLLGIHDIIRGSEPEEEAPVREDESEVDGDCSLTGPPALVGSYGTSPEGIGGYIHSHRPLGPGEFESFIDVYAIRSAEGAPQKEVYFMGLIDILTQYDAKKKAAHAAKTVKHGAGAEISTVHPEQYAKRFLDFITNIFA

[6] = tested on: LN-229; assay: cell proliferation assay (MTS, 72 h); conditions: Homo sapiens, LN-229, 72 h, read-out: CC50 LN-229
[7] = tested on: NCI-H460; assay: cell proliferation assay (MTS, 72 h); conditions: Homo sapiens, NCI-H460, 72 h, read-out: CC50 NCI-H460
[8] = tested on: Z-138; assay: cell proliferation assay (MTS, 72 h); conditions: Homo sapiens, Z-138, 72 h, read-out: CC50 Z-138
[9] = tested on: HCT-116; assay: cell proliferation assay (MTS, 72 h); conditions: Homo sapiens, HCT-116, 72 h, read-out: CC50 HCT-116
[10] = tested on: HL-60; assay: cell proliferation assay (MTS, 72 h); conditions: Homo sapiens, HL-60, 72 h, read-out: CC50 HL-60
[11] = tested on: DND-41; assay: cell proliferation assay (MTS, 72 h); conditions: DND41, 72 h, read-out: CC50 DND-41
[12] = tested on: Capan-1; assay: cell proliferation assay (MTS, 72 h); conditions: Homo sapiens, CAPAN-1, 72 h, read-out: CC50 Capan-1
[13] = tested on: K-562; assay: cell proliferation assay (MTS, 72 h); conditions: Homo sapiens, K562, 72 h, read-out: CC50 K-562
[14] = tested on: SARS-CoV-2; assay: microbe, parasite or virus in culture; format: cell-based, severe acute respiratory syndrome coronavirus 2; conditions: for EC50: Severe acute respiratory syndrome coronavirus 2, VeroE6/TMPRSS2, 24 h, read-out: SARS-CoV2 EC50

T1 sequence (Q9Y2I7 whole entry): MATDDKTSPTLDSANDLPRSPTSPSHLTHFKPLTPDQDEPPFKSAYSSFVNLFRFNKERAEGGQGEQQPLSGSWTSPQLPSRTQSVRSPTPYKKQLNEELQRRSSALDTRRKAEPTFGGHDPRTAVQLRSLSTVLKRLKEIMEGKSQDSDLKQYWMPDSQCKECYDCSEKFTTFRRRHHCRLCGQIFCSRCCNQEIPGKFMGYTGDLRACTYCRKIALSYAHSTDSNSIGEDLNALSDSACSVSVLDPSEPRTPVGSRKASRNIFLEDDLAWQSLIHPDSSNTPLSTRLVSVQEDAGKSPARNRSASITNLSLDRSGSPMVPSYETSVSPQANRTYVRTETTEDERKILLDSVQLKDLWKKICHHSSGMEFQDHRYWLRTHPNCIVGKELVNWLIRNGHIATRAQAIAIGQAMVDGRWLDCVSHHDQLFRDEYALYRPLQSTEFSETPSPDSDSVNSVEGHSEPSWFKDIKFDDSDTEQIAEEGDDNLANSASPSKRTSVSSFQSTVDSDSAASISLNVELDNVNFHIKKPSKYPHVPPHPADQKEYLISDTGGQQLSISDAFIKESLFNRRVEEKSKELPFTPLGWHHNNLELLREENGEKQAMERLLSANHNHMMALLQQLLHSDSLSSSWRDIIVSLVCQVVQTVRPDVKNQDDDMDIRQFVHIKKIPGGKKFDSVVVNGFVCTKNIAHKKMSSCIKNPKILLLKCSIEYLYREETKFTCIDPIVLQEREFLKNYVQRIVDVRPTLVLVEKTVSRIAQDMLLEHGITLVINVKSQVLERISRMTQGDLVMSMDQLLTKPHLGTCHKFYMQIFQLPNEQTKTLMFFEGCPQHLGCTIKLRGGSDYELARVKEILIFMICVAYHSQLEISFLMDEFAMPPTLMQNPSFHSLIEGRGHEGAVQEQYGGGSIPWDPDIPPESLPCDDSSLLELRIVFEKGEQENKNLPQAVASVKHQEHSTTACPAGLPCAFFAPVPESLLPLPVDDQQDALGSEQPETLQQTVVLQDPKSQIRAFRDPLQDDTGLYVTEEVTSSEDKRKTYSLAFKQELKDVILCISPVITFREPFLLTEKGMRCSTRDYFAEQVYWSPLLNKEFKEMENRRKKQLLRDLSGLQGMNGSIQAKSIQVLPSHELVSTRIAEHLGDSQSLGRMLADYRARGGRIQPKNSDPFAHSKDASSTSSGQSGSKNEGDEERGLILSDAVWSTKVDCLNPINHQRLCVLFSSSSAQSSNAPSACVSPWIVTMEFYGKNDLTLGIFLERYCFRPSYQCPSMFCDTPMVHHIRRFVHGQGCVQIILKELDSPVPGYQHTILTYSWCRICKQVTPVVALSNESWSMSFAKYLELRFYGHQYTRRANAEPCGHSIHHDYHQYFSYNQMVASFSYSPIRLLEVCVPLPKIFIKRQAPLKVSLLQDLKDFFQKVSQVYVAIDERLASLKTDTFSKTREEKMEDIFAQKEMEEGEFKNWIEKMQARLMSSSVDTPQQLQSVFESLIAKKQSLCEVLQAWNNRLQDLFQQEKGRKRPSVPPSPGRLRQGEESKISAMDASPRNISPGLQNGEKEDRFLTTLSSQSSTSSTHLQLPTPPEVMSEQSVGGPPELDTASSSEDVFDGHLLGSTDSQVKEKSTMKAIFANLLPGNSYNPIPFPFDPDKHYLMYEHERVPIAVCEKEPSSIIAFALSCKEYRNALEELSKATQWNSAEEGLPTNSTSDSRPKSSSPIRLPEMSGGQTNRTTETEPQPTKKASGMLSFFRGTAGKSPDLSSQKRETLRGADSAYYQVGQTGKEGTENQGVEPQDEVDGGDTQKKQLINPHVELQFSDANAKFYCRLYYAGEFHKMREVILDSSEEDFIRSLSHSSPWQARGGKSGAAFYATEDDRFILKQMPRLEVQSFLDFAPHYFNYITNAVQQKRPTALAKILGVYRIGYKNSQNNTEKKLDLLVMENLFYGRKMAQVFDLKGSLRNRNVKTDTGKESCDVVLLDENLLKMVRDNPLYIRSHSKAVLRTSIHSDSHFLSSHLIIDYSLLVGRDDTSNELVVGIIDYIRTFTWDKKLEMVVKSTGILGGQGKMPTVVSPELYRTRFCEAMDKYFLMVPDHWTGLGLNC

SMILES | EC50 [1] [µM] | CC50 [2] [µM] | VEEV (TC-83) CC50 [3] [µM] | IC50 ([4]; Table 5 column) [nM] | IC50 ([4]; Tables 1-4 and text) [nM] | Kd [5] [µM] | CC50 [6] [µM] | CC50 [7] [µM] | CC50 [8] [µM] | CC50 [9] [µM] | CC50 [10] [µM] | CC50 [11] [µM] | CC50 [12] [µM] | CC50 [13] [µM] | EC50 [14] [µM] | IC50 ([4]; values given in text in nM) [nM] | fold more potent on PIKfyve than 7o ([4]; ratio of IC50 values) [fold] | fold more potent on PIKfyve than 7h ([4]; ratio of IC50 values) [fold] | fold less potent on PIKfyve relative to RMC-113 ([4]; ratio of IC50 values) [fold] | SARS-CoV-2 screening, result in words ([14]; Vero E6/TMPRSS2 cells)
COc1cccc(-c2cnc3c(C#Cc4cccnc4)snc3c2)c1 [Compound 3a, 6-(3-Methoxyphenyl)-3-(pyridin-3-ylethynyl)isothiazolo[4,3-b]pyridine] | 6.88 ± 0.33 | < 10 | >10 | 6.8 | 6.8 | 0.19 | – | – | – | – | – | – | – | – | – | – | – | – | – | –
COc1ccccc1-c1cnc2c(C#Cc3cccnc3)snc2c1 [Compound 3b, 6-(2-Methoxyphenyl)-3-(pyridin-3-ylethynyl)isothiazolo[4,3-b]pyridine] | – | – | – | – | 6.8 | – | 3.28 ± 1.24 | 2.97 ± 0.75 | 1.81 ± 0.69 | 1.02 ± 1.24 | 1.48 ± 1.13 | 3.92 ± 0.72 | 1.02 ± 0.09 | 5.27 ± 0.59 | – | – | – | – | – | –
COc1cc(-c2cnc3c(C#Cc4cccnc4)snc3c2)ccc1N [Compound 3f, 2-Methoxy-4-(3-(pyridin-3-ylethynyl)isothiazolo[4,3-b]pyridin-6-yl)aniline] | 0.26 ± 0.08 | > 20 | >20 | 2.8 | 2.8 | 0.044 | – | – | – | – | – | – | – | – | 2.74 ± 0.04 | – | – | – | – | –
Fc1ccc(-c2cnc3c(C#Cc4cccnc4)snc3c2)cc1 [Compound 3g, 6-(4-Fluorophenyl)-3-(pyridin-3-ylethynyl)isothiazolo[4,3-b]pyridine] | – | – | – | – | 10 | – | 4.39 ± 0.94 | 1.46 ± 0.36 | 1.03 ± 0.2 | 0.81 ± 0.16 | 1.51 ± 0.71 | 3.06 ± 1.71 | 0.73 ± 0.23 | 5.18 ± 0.48 | – | – | – | – | – | –
Clc1cccc(-c2cnc3c(C#Cc4cccnc4)snc3c2)c1 [Compound 3i, 6-(3-Chlorophenyl)-3-(pyridin-3-ylethynyl)isothiazolo[4,3-b]pyridine] | – | – | – | 21 | 21 | 0.18 | – | – | – | – | – | – | – | – | – | – | – | – | – | –
NC(=O)c1ccc(-c2cnc3c(C#Cc4cccnc4)snc3c2)cc1 [Compound 3m, 4-(3-(Pyridin-3-ylethynyl)isothiazolo[4,3-b]pyridin-6-yl)benzamide] | 0.19 ± 0.001 | > 20 | >20 | 1.6 | 1.6 | 0.041 | 3.23 ± 0.78 | 2.9 ± 1.72 | 0.96 ± 0.3 | 0.34 ± 0.78 | 1 ± 0.57 | 2.25 ± 0.19 | 2.41 ± 0.94 | 6.53 ± 0.46 | 1.82 ± 0.94 | – | – | – | – | –
COCCNC(=O)c1cccc(-c2cnc3c(C#Cc4cccnc4)snc3c2)c1 [Compound 3s, N-(2-Methoxyethyl)-3-(3-(pyridin-3-ylethynyl)isothiazolo[4,3-b]pyridin-6-yl)benzamide] | 0.4 ± 0.08 | > 20 | >10 | 1.9 | 1.9 | 0.03 | – | – | – | – | – | – | – | – | 5.65 ± 1.49 | – | – | – | – | –
COc1cc(-c2cnc3c(C#Cc4cccnc4)snc3c2)ccc1C(=O)O [Compound 4, 2-Methoxy-4-(3-(pyridin-3-ylethynyl)isothiazolo[4,3-b]pyridin-6-yl)benzoic acid] | 8.7 ± 1.7 | > 20 | >10 | 49 | 49 | 0.068 | – | – | – | – | – | – | – | – | 0.36 ± 0.19 | – | – | – | – | –
C(#Cc1snc2cc(-c3ccc(OCCN4CCCC4)cc3)cnc12)c1cccnc1 [Compound 5b, 3-(Pyridin-3-ylethynyl)-6-(4-(2-(pyrrolidin-1-yl)ethoxy)phenyl)isothiazolo[4,3-b]pyridine] | 0.71 ± 0.09 | > 20 | >10 | – | 5.5 | – | – | – | – | – | – | – | – | – | 1.42 ± 0.14 | – | – | – | – | –
COc1ccc(-c2cnc3c(C#Cc4ccccc4F)snc3c2)cc1OC [Compound 7e, 6-(3,4-Dimethoxyphenyl)-3-((2-fluorophenyl)ethynyl)isothiazolo[4,3-b]pyridine] | 16.8 ± 1.25 | 15.7 ± 1.34 | >20 | 62 | 62 | 0.28 | – | – | – | – | – | – | – | – | 0.55 ± 0.15 | – | – | – | – | –
COc1ccc(-c2cnc3c(C#Cc4cncc(C)c4)snc3c2)cc1OC [Compound 7i, 6-(3,4-Dimethoxyphenyl)-3-((5-methylpyridin-3-yl)ethynyl)isothiazolo[4,3-b]pyridine] | – | – | – | – | 2 | – | > 100 | > 100 | 70.2 ± 2.55 | ≥ 74 | > 100 | > 100 | 14.6 ± 2.97 | > 100 | – | 2 | – | – | – | –
COc1cncc(C#Cc2snc3cc(-c4ccc(OC)c(OC)c4)cnc23)c1 [Compound 7l, 6-(3,4-Dimethoxyphenyl)-3-((5-methoxypyridin-3-yl)ethynyl)isothiazolo[4,3-b]pyridine] | 1.64 ± 0.05 | > 20 | >10 | 3.3 | 3.3 | 0.039 | 5.15 ± 2.05 | 5.38 ± 0.56 | 1.85 ± 0.07 | 2.45 ± 0.85 | 1.8 | 5.25 ± 0.64 | 1.79 ± 1.2 | 5.7 ± 1.27 | 4.92 ± 0.93 | 3 | 6 | 200 | – | –
COC(=O)c1cncc(C#Cc2snc3cc(-c4ccc(OC)c(OC)c4)cnc23)c1 [Compound 7m, Methyl 5-((6-(3,4-dimethoxyphenyl)isothiazolo[4,3-b]pyridin-3-yl)ethynyl)nicotinate] | 1.16 ± 0.001 | > 20 | >10 | – | 120 | – | – | – | – | – | – | – | – | – | 2.56 ± 0.86 | – | – | – | – | –
COc1ccncc1C#Cc1snc2cc(-c3ccc(OC)c(OC)c3)cnc12 [Compound 7o, 6-(3,4-Dimethoxyphenyl)-3-((4-methoxypyridin-3-yl)ethynyl)isothiazolo[4,3-b]pyridine] | 0.92 ± 0.08 | < 10 | 7.69 ± 0.001 | 19 | 19 | 0.23 | – | – | – | – | – | – | – | – | – | – | – | – | – | –
COc1ccc(-c2cnc3c(C#Cc4cnccc4C)snc3c2)cc1OC [Compound 7p, 6-(3,4-Dimethoxyphenyl)-3-((4-methylpyridin-3-yl)ethynyl)isothiazolo[4,3-b]pyridine] | 4.01 ± 0.13 | > 20 | >10 | – | 33 | – | > 100 | > 100 | 12.3 ± 1.77 | > 100 | > 100 | > 100 | > 100 | > 100 | 0.83 ± 0.06 | – | – | – | – | –
COc1ccc(-c2cnc3c(C#Cc4ccc(C#N)nc4)snc3c2)cc1OC [Compound 7q, 5-((6-(3,4-Dimethoxyphenyl)isothiazolo[4,3-b]pyridin-3-yl)ethynyl)picolinonitrile] | – | – | – | – | > 10000 | > 30 | – | – | – | – | – | – | – | – | – | – | – | – | – | –
COc1ccc(-c2cnc3c(C#Cc4cncc(F)c4)snc3c2)cc1OC [Compound 7r, 6-(3,4-Dimethoxyphenyl)-3-((5-fluoropyridin-3-yl)ethynyl)isothiazolo[4,3-b]pyridine] | 1.85 ± 0.12 | > 20 | >10 | 98 | 98 | 0.11 | – | – | – | – | – | – | – | – | 1.92 ± 0.52 | – | – | – | – | –
COc1ccc(-c2cnc3c(C#Cc4cnc5ccccc5c4)snc3c2)cc1OC [Compound 7w, 6-(3,4-Dimethoxyphenyl)-3-(quinolin-3-ylethynyl)isothiazolo[4,3-b]pyridine] | 2.08 ± 0.1 | < 10 | >10 | 5690 | 5690 | 2 | – | – | – | – | – | – | – | – | – | – | – | – | 700 | only cytotoxicity was observed
Ic1cccc(/C=N/Nc2nc(N3CCOCC3)nc(N(c3ccccc3)c3ccccc3)n2)c1 [Vacuolin-1, reference compound] | – | – | – | – | – | – | 6.35 ± 1.8 | 1.46 ± 0.16 | 16.6 ± 1.31 | 1.87 ± 0.75 | 26.4 ± 1.48 | 24.1 ± 1.21 | 0.9 ± 0.13 | 17.2 ± 3.08 | – | – | – | – | – | –
